In PMC11354745, “Discovery of Novel Amino Acids (Analogues)-Substituted Thiophene[3,2-d]pyrimidine Derivatives as Potent HIV-1 Non-Nucleoside Reverse Transcriptase Inhibitors: Design, Synthesis, and Biological Evaluation” (International Journal of Molecular Sciences, 2024):
Like-named read-outs stand apart in the source and are kept apart here.

Assays:
[1] = test system: HIV-1 E138K mutant strain; assay: Anti-HIV activity in MT-4 cells (MTT method), E138K; type: cell-based; settings: for EC50: Human immunodeficiency virus 1, MT4, read-out: EC50 E138K
From the text: (§1) All the target compounds were first evaluated for their antiviral activity against HIV-1 wild-type (WT) strain (IIIB) and the double-mutant strain K103N+Y181C (RES056) in the MT-4 cell line, using the MTT method. The potent inhibitors were selected to assess their efficacy against other strains resistant to NNRTIs, including L100I, K103N, Y181C, Y188L, E138K and the double-mutant strain F227L+V106A. The approved drugs NVP, EFV and ETR were selected as reference drugs. The biological evaluation results of the test compounds, presented as EC50 (anti-HIV potency), CC50 (cytotoxicity) and SI (selectivity index, CC50/EC50 ratio), are summarized in Table 1 and Table 2.
(§2) The antiviral potential and cytotoxic effects of the target compounds were assessed using the MTT assay in MT-4 cells, following established protocols. The HIV-1 (IIIB) strain, single mutant strains (L100I, K103N, Y181C, Y188L and E138K), double mutant strains (F227L + V106A and K103N + Y181C) and MT-4 cells were provided by the Rega Institute of Medicine at the University of Leuven, Belgium. These viral strains were propagated in MT-4 cells. The MT-4 cells were cultured in RPMI-1640 medium supplemented with 20 mM HEPES buffer (Life Technologies, Grand Island, NY, USA), 10% (v/v) heat-inactivated fetal calf serum (FCS), 2 mM L-glutamine, 0.1% sodium bicarbonate, and 20 μg/mL gentamicin. Cultures were maintained at 37 °C in a 5% CO2 atmosphere. The specific experimental procedures are detailed below.
(§3) Initially, concentrated solutions of the test compounds were prepared at 10-fold the final desired concentration and added to triplicate wells in 25 µL aliquots to assess their impacts on both mock and HIV-infected MT-4 cells. Using a Biomek 3000 robot, these were diluted in a 96-well flat-bottomed microplate by mixing with medium, creating a series of 5-fold steps down in concentration. Each test included control groups of untreated infected and mock-infected cells to establish baselines for comparison. We introduced HIV-1 strains, both wild-type (IIIB) and drug-resistant variants harboring mutations L100I, K103N, Y181C, Y188L, E138K and F227L + V106A and the double mutant K103N + Y181C (RES056), at concentrations of 100–300 CCID50, into their respective wells. These strains served to mimic both typical and resistant infections. Additionally, mock-infected wells received an equal volume of culture medium to assess the compounds’ impacts on uninfected cells, thereby determining cytotoxicity. MT-4 cells in the exponential growth phase were pelleted by centrifugation at 1000 rpm for 5 min, after which the supernatant was removed. The cells were resuspended to a density of 6 × 10^5 cells/mL, and 50 µL of this suspension was added to each well. Post-infection, on the fifth day, cell viability in both mock and infected conditions was measured via the MTT assay using a spectrophotometer. The CC50 was identified as the concentration of the compound that caused a 50% reduction in the viability of the mock-infected cells, indicating cytotoxicity. Conversely, the EC50 represented the concentration that provided 50% protection against viral cytopathic effects in infected cells, signifying antiviral potency.

[2] = test system: HIV-1 K103N mutant strain; assay: Anti-HIV activity in MT-4 cells (MTT method), K103N; type: cell-based; settings: Human immunodeficiency virus 1, MT4, read-out: EC50 K103N
From the text: as §1, §2, §3

[3] = test system: HIV-1 wild-type (WT) strain (IIIB); assay: Anti-HIV activity in MT-4 cells (MTT method), HIV-1 IIIB; type: cell-based; settings: for EC50: Human immunodeficiency virus 1, IIIB, MT4, read-out: EC50 IIIB; for SI IIIB: selectivity index, ratio CC50/EC50, IIIB
Description: (§4) All the target compounds were first evaluated for their antiviral activity against HIV-1 wild-type (WT) strain (IIIB) and the double-mutant strain K103N+Y181C (RES056) in the MT-4 cell line, using the MTT method.
(§5) The antiviral potential and cytotoxic effects of the target compounds were assessed using the MTT assay in MT-4 cells, following established protocols. The HIV-1 (IIIB) strain, single mutant strains (L100I, K103N, Y181C, Y188L and E138K), double mutant strains (F227L + V106A and K103N + Y181C) and MT-4 cells were provided by the Rega Institute of Medicine at the University of Leuven, Belgium. These viral strains were propagated in MT-4 cells. […] The specific experimental procedures are detailed below.
as §3, with “We introduced HIV-1 strains, both wild-type (IIIB) and drug-resistant variants harboring mutations L100I, K103N, Y181C, Y188L, E138K and F227L + V106A and the double mutant K103N + Y181C (RES056), at concentrations of 100–300 CCID50, into their respective wells.” left out, “spectrophotometer.” for “spectrophotometer. The CC50 was identified as the concentration of the compound that caused a 50% reduction in the viability of the mock-infected cells, indicating cytotoxicity. Conversely, the EC50 represented the concentration that provided 50% protection against viral cytopathic effects in infected cells, signifying antiviral potency.”

[4] = test system: HIV-1 Y181C mutant strain; assay: Anti-HIV activity in MT-4 cells (MTT method), Y181C; type: cell-based; settings: Human immunodeficiency virus 1, MT4, read-out: EC50 Y181C
From the text: as §1, §2, §3

[5] = test system: HIV-1 double-mutant strain F227L+V106A; assay: Anti-HIV activity in MT-4 cells (MTT method), F227L+V106A; type: cell-based; settings: Human immunodeficiency virus 1, MT4, read-out: EC50 F227L/V106A
From the text: as §1, §2, §3

[6] = test system: HIV-1 Y188L mutant strain; assay: Anti-HIV activity in MT-4 cells (MTT method), Y188L; type: cell-based; settings: Human immunodeficiency virus 1, MT4, read-out: EC50 Y188L
From the text: as §1, §2, §3

[7] = test system: HIV-1 double-mutant strain K103N+Y181C (RES056); assay: microbe, parasite or virus in culture; type: cell-based; settings: for EC50: Human immunodeficiency virus 1, MT4, read-out: EC50 RES056; for SI RES056: selectivity index, ratio CC50/EC50, RES056
Description: as §4, §5
as §3, with “We introduced HIV-1 strains, both wild-type (IIIB) and drug-resistant variants harboring mutations L100I, K103N, Y181C, Y188L, E138K and F227L + V106A and the double mutant K103N + Y181C (RES056), at concentrations of 100–300 CCID50, into their respective wells.” left out, “spectrophotometer.” for “spectrophotometer. The CC50 was identified as the concentration of the compound that caused a 50% reduction in the viability of the mock-infected cells, indicating cytotoxicity. Conversely, the EC50 represented the concentration that provided 50% protection against viral cytopathic effects in infected cells, signifying antiviral potency.”

WT HIV-1 RT = target: T1, WT HIV-1 RT (Human immunodeficiency virus type 1 group M subtype B, UniProt P03366); assay: HIV-1 RT inhibition assay (Roche kit, ELISA); type: biochemical
T1 construct: viral nucleotides (dNTPs) and the HIV-1 RT enzyme in an incubation buffer; purchased Roche
From the text: An assay kit for HIV-1 reverse transcriptase (RT) from Roche was utilized to assess RT inhibition. The kit provided all necessary components for the RT reaction, and the enzyme-linked immunosorbent assay (ELISA) methodology for the inhibition assay was executed according to the kit’s instructions. […] Unbound dNTPs were washed away, and an anti-[…] (DIG)-POD working solution was introduced. […] Excess anti-DIG-POD was removed, and a peroxidase substrate (ABTS) solution was applied to the MTPs. […] The percentage of the inhibitory activity of the RT inhibitors was calculated by formula, as given below:
% Inhibition = [O.D. value with RT but without inhibitors − O.D. value with RT and inhibitors]/[O.D. value with RT […] − O.D. value without RT and inhibitors].

[8] = Cytotoxicity in mock-infected MT-4 cells (MTT method); type: cell-based; settings: human, CC50
Description: as §2, §3

[9] = test system: HIV-1 L100I mutant strain; assay: Anti-HIV activity in MT-4 cells (MTT method), L100I; type: cell-based; settings: Human immunodeficiency virus 1, MT4, read-out: EC50 L100I
From the text: as §1, §2, §3

[10] = test system: HIV-1 wild-type (WT) and a panel of NNRTI-resistant strains; assay: Anti-HIV activity in MT-4 cells (MTT method), WT and panel of NNRTI-resistant strains; type: cell-based
From the text: as §1
The antiviral potential and cytotoxic effects of the target compounds were assessed using the MTT assay in MT-4 cells, following established protocols. […]
Initially, concentrated solutions of the test compounds were prepared at 10-fold the final desired concentration and added to triplicate wells in 25 µL aliquots to assess their impacts on both mock and HIV-infected MT-4 cells. […] Post-infection, on the fifth day, cell viability in both mock and infected conditions was measured via the MTT assay using a spectrophotometer. […]

MT-4 cells = assay: Cytotoxicity in mock-infected MT-4 cells (MTT method); type: cell-based; settings: human, 5 days
Description: as §2, §3

| SMILES | EC50 [1] [nM] | EC50 [2] [nM] | EC50 [3] [nM] | SI IIIB [3] | EC50 [4] [nM] | EC50 [5] [nM] | EC50 [6] [nM] | EC50 [7] [nM] | SI RES056 [7] | IC50 (WT HIV-1 RT) [nM] | CC50 at 5 days [8] [nM] | EC50 [9] [nM] | melting point [°C] | fold superior to NVP, E138K ([1]; ratio of EC50 values against E138K, versus NVP) [fold] | EC50 ([10]; Human immunodeficiency virus 1, MT4, read-out: EC50 values against HIV-1 WT and a panel of NNRTI-resistant strains, range over strains, MT-4 cells) [nM] | EC50 ([10]; read-out: EC50 values against HIV-1 WT and a panel of NNRTI-resistant strains, range over strains, MT-4 cells) [nM] | CC50 (MT-4 cells) [nM] |
| --- | --- | --- | --- | --- | --- | --- | --- | --- | --- | --- | --- | --- | --- | --- | --- | --- | --- |
| Cc1cc(C#N)cc(C)c1Oc1nc(Nc2ccc(NC(=O)[C@@H](N)Cc3ccccc3)cc2)nc2ccsc12 [5h] | 679 ± 569 | 73 ± 16 | 55 ± 12 | 429 | 2720 ± 422 | 2110 ± 293 | 2390 ± 352 | 8470 ± 483 | 3 | 1540 ± 119 | 23700 ± 521 | 1830 ± 208 | 203 to 206 |  |  |  |  |
| Cc1cc(C#N)cc(C)c1Oc1nc(Nc2ccc(NC(=O)[C@@H](N)C(C)C)cc2)nc2ccsc12 [5i] | 247 ± 107 | 45 ± 10 | 42 ± 8 | 157 | > 6540 | 3030 ± 1760 | 6910 ± 944 | ≥ 6620 | ≤1 | 1350 ± 148 | 6540 ± 1340 | 1200 ± 218 | 184 to 187 |  |  |  |  |
| Cc1cc(C#N)cc(C)c1Oc1nc(Nc2ccc(NC(=O)C3CCCN3)cc2)nc2ccsc12 (stereo not shown) [5k] | 94 ± 22 | 31 ± 4 | 54 ± 18 | 513 | 1850 ± 621 | 1760 ± 686 | 2360 ± 57 | 7530 ± 280 | 4 | 1120 ± 74 | 27900 | 601 ± 261 | 227 to 230 | ~1.9 | 42 to 7530 | 31 to 2360 | 27900 ± 910 |
